Test results from paper PMC6606794, “Crosstalk of Cellulose and Mannan Perception Pathways Leads to Inhibition of Cellulase Production in Several Filamentous Fungi” (mBio, 2019).

Legend:
CDT-1 = biological target: T1, CDT-1 (Neurospora crassa, UniProt Q7SCU1); experiment: uptake by yeast expressing CDT-1, residual sugar by HPAEC-PAD; assay type: cell-based; settings: 100 µM sugar, 30 min, over empty-vector background
T1 construct: pRS316-CDT1 expressed in Saccharomyces cerevisiae D452-2
T1 sequence (Q7SCU1 1-579): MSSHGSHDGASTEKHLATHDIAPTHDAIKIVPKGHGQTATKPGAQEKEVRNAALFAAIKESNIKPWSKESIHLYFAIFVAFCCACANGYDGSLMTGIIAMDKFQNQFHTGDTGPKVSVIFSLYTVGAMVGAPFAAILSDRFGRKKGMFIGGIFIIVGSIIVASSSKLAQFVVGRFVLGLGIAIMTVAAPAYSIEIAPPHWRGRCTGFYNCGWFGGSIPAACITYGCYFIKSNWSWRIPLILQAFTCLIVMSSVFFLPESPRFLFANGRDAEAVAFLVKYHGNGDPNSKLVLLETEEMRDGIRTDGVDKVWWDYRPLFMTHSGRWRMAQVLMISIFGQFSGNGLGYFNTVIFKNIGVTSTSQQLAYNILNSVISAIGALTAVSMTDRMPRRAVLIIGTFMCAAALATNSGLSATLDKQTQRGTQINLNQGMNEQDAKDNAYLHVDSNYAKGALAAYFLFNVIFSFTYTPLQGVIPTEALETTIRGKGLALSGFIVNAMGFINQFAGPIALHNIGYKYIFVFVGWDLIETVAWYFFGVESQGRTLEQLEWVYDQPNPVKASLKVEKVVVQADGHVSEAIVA

CDT-2 = biological target: T2, CDT-2 (Neurospora crassa, UniProt Q7SD12); experiment: uptake by yeast expressing CDT-2, residual sugar by HPAEC-PAD; assay type: cell-based; settings: 100 µM sugar, 30 min
T2 construct: pRS316-CDT2 expressed in Saccharomyces cerevisiae D452-2
T2 sequence (Q7SD12 1-525): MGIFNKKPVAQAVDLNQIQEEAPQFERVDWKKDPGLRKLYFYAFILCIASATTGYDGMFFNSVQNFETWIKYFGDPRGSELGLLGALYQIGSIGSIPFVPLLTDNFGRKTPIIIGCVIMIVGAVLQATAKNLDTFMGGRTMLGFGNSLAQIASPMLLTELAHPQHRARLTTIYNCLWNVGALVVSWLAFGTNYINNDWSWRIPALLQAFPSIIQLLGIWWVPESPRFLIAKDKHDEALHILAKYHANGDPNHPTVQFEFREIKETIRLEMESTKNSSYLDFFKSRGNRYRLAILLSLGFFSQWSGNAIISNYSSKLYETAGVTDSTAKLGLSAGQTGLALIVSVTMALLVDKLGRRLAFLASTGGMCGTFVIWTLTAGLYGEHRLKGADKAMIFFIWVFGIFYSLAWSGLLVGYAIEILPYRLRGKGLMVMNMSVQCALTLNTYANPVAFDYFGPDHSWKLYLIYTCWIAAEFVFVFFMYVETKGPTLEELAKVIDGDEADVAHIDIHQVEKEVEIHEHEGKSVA

GH2-1 = biological target: T3, GH2-1 (Neurospora crassa, UniProt Q7SFE1); experiment: 4-nitrophenol release, absorbance at […] nm; assay type: biochemical; settings: 50 mM KP buffer pH 5.5, 37 °C, 1 h, 0.1 µg enzyme, 80 µg substrate
T3 construct: gh2-1 cDNA in pGAPZ-B (EcoRI/XbaI), His-tagged, expressed in Pichia pastoris X-33, purified by IMAC from cell lysate; no predicted signal peptide
T3 sequence (Q7SFE1 1-854): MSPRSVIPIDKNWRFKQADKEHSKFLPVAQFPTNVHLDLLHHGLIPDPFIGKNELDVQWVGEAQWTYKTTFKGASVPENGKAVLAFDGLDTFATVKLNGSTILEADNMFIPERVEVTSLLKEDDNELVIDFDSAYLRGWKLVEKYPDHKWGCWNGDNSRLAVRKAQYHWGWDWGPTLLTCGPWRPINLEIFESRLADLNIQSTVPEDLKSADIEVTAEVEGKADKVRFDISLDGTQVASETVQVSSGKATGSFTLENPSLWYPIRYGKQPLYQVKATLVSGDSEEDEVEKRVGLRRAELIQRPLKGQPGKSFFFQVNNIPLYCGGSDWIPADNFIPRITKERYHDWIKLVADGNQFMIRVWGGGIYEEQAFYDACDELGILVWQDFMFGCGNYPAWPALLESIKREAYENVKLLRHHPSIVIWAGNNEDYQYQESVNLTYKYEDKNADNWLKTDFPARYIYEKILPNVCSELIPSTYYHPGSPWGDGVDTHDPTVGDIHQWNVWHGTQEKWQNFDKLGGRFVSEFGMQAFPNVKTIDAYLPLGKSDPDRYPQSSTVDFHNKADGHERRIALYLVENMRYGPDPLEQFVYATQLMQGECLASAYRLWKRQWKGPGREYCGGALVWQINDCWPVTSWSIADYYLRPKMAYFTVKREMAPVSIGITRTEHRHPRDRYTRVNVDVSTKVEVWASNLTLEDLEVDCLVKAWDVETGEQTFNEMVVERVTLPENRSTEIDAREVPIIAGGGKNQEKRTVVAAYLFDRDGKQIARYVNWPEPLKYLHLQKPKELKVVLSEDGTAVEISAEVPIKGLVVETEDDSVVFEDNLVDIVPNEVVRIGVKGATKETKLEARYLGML

SMILES | % remaining in supernatant (CDT-1; competes with mannobiose) | uptake by yeast expressing CDT-2, residual sugar by HPAEC-PAD (CDT-2) | % remaining in supernatant (CDT-1; competes with cellobiose) | 4-nitrophenol release, absorbance at 405 nm (GH2-1)
OC[C@H]1O[C@@H](O[C@H]2[C@H](O)[C@@H](O)C(O)O[C@@H]2CO)[C@H](O)[C@@H](O)[C@@H]1O (some centres unmarked) [CB, cellobiose] | ~ 40% | not only cellobiose was imported by both S. cerevisiae strains, but also mannobiose |  | 
OC[C@H]1O[C@@H](O[C@H]2[C@H](O)[C@H](O)C(O)O[C@@H]2CO)[C@@H](O)[C@@H](O)[C@@H]1O (some centres unmarked) [MB, mannobiose] |  | not only cellobiose was imported by both S. cerevisiae strains, but also mannobiose | ~ 18% | 
O=[N+]([O-])c1ccc(O[C@@H]2O[C@H](CO)[C@@H](O)[C@H](O)[C@@H]2O)cc1 [ρNP-β-Man, 4-nitrophenyl-β-D-mannopyranoside] |  |  |  | The purified enzyme showed strong activity on ρNP-β-D-mannopyranoside with high specificity
